# Experimental data: patent publication US20190322676A1, “CERAMIDE GALACTOSYLTRANSFERASE INHIBITORS FOR THE TREATMENT OF DISEASE” (BioMarin Pharmaceutical Inc., priority 2016, published 2019)
# Where a name gives a salt, the structure may show the parent alone.
# Target: T1, human CGT (ceramide galactosyltransferase), CHO/CGT lysate (Homo sapiens, UniProt Q16880)
# T1 construct: Full-length human CGT cDNA was cloned into the BamH1/Xho1 site of pcDNA3.1 (+); expressed in transfected cells; host or cells: Chinese hamster ovary (CHO) cells; lysate prepared with M-PER
# T1 sequence (Q16880 21-541): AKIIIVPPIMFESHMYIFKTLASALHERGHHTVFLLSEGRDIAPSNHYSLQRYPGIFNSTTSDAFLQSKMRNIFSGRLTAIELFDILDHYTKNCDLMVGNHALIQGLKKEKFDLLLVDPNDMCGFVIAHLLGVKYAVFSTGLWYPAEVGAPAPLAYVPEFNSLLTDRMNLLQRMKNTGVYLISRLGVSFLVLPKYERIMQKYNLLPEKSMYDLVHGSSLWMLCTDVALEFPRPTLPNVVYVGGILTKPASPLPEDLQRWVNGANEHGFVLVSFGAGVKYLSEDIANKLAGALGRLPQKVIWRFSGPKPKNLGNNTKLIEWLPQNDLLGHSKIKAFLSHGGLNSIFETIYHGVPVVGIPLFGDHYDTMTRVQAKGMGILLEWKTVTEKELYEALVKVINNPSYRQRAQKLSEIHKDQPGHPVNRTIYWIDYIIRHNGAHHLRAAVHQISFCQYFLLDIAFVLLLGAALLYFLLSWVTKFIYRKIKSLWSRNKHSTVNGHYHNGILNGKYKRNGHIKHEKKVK
# Assay: CGT enzyme assay, RapidFire/MS/MS readout (Table 1 ranges with one asterisk *)
# Assay type: biochemical
# Conditions: RapidFire method (range with one asterisk *)
# Description: Full-length human CGT cDNA was cloned into the BamH1/Xho1 site of pcDNA3.1 (+) mammalian expression vector (V90-20, Invitrogen, Carlsbad, Calif.) and the plasmid was transfected into Chinese hamster ovary (CHO) cells. Lysate was prepared using M-PER (Mammalian Protein Extraction Reagent, ThermoFisher Scientific, Grand Island, N.Y.) in the presence of a protease inhibitor cocktail (P8340, Sigma, Saint Louis, Mo.). Each 100 mm dish (100% confluent, approximately 1×10^7 cells) was lysed with 250 μL of M-PER containing protease inhibitors. Protein concentration was determined using a Pierce BCA protein assay kit (ThermoFisher Scientific). Four micrograms of CHO/CGT lysate was incubated with various concentrations of a compound (0.001 μM-50 μM) in 10 mM HEPES (pH 7.2) containing 35 μM dioleoylphosphatidylcholine, 5 mM MgCl2, 5 mM MnCl2, 1% BSA, 15 mM KCl, 1 mM EGTA, 8 mM CHAPS, 10 μM C6-NBD-dihydro-ceramide and 17.5 μM UDP-galactose in a final reaction volume of 20 μL at 37° C. for 1 hour. The final concentration of DMSO was 0.5% in both compound-treated and mock-treated samples. Tween 80 (0.01%) was optionally added to the reaction mixture to help solubilize the compounds. Each individual reaction was diluted with 80 μL of methanol:acetronitrile (1:3) containing 5 μM N-docdecanoyl-NBD-galactosylceramide (internal standard) to stop the reaction. 200 μL H2O:acetonitile (1:1) was added to precipitate the protein. After sufficient mixing, the plates were centrifuged at 2469 g for 38 minutes, 200 μL of supernatant was transferred to a LC/MS 96-deep well plate and a second spin was performed at 2469 g for 10 minutes. The final supernatant was injected in triplicate for RapidFire/MS/MS analysis.
# Quantitative Analysis Using the RapidFire/MS/MS Method:
# The quantitative analysis of C6-NBD-dihydro-ceramide and C6-NBD-dihydro-galactosylceramide was performed on a Rapid Fire 360 high-throughput mass spectrometry system (Agilent Technologies, Palo Alto, Calif.) coupled with a API4000^+ triple quadrupole mass spectrometer (Applied Biosystems, Concord, Ontario, Canada). RapidFire software packages, including RapidFire Control panel, RapidFire UI and RapidFire Integrator (Agilent Technologies), were used to control the RapidFire instrument and to process data. Analyst 1.6.2 software packages (Applied Biosystems) were used to control the MS system and acquire MS data. […] of sample was loaded on a micro-scale C4 solid-phase extraction (SPE) cartridge (Agilent Technologies) and salts were removed using water supplemented with 0.1% formic acid at the flow rate of 1.5 mL/min for 3 sec. C6-NBD-dihydro-ceramide and C6-NBD-dihydro-galactosylceramide were co-eluted into the mass spectrometer using acetonitrile containing 0.1% formic acid at the flow rate of 1.0 mL/min for 3 sec. The total cycle time of one injection was 8 secs. The MS/MS detection was performed in ESI negative mode. The mass transition of C6-NBD-dihydro-galactosylceramide was m/z 752.6→678.6 using a −40 V collision energy, the mass transition of C6-NBD-dihydro-ceramide was m/z 590.6→115.8 using a −40 V collision energy and the mass transition of N-docdecanoyl-NBD-galactosylceramide was m/z 820.9→746.3 using a −45 V collision energy.
# The C6-NBD-dihydro-galactosylceramide reading was normalized first by dividing the peak area of C6-NBD-dihydro-galactosylceramide by the peak area of the internal standard, N-docdecanoyl-NBD-galactosylceramide. IC50 values (see Table 1, where data ranges with one asterix (*) correspond to analysis using the RapidFire/MS/MS method, and data ranges with two asterixes (**) correspond to analysis using the RapidFire/MS/MS method with 0.01% Tween added) were generated from sigmoidal dose-response curves (variable slope) with GraphPad Prism software (GraphPad Software, Inc., San Diego, Calif.) using the normalized peak areas of C6-NBD-dihydro-galactosylceramide or the percent inhibition of C6-NBD-dihydro-galactosylceramide accumulation relative to DMSO control. […]
row,Compound,IC50
1,"CN([C@@H](C(=O)N1C2CCC1CC(N)C2)C(F)(F)c1ccc(C(F)(F)F)cc1)S(=O)(=O)c1ccc2cc(OC3CCCC3)ccc2c1 (stereo partly drawn) [Compound 73-2, N-((2S)-3-(3-amino-8-azabicyclo[3.2.1]octan-8-yl)-1,1-difluoro-3-oxo-1-(4-(trifluoromethyl)phenyl)propan-2-yl)-6-(cyclopentyloxy)-N-methylnaphthalene-2-sulfonamide]",1 to 10 µM
2,"NC1CC2CCC(C1)N2C(=O)[C@H](NS(=O)(=O)c1ccc2cc(OC3CCCC3)ccc2c1)C(F)(F)c1ccc(-c2ccc(Cl)s2)cc1 (stereo partly drawn) [Compound 101-2, N-((2S)-3-(3-amino-8-azabicyclo[3.2.1]octan-8-yl)-1-(4-(5-chlorothiophen-2-yl)phenyl)-1,1-difluoro-3-oxopropan-2-yl)-6-(cyclopentyloxy)naphthalene-2-sulfonamide]",1 to 10 µM
3,"COc1cc(C(F)(F)[C@@H](NS(=O)(=O)c2ccc3cc(OC4CCCC4)ccc3c2)C(=O)N2C3CCC2CC(N)C3)ccc1Br (stereo partly drawn) [Compound 89-2, N-((2S)-3-(3-amino-8-azabicyclo[3.2.1]octan-8-yl)-1-(4-bromo-3-methoxyphenyl)-1,1-difluoro-3-oxopropan-2-yl)-6-(cyclopentyloxy)naphthalene-2-sulfonamide]",1 to 10 µM
4,"NC1CCN(C(=O)[C@H](NS(=O)(=O)c2ccc3cc(OC4CCCC4)ccc3c2)C(F)(F)c2ccc(C(F)(F)F)cc2)CC1 [Compound 71-2, (S)—N-(3-(4-aminopiperidin-1-yl)-1,1-difluoro-3-oxo-1-(4-(trifluoromethyl)phenyl)propan-2-yl)-6-(cyclopentyloxy)naphthalene-2-sulfonamide]",1 to 10 µM
5,"CCCCOc1ccc(C(F)(F)[C@@H](NS(=O)(=O)c2ccc(OCC3CCCCC3)cc2)C(=O)N2CCC(N)CC2)cc1 [Compound 81-2, (S)—N-(3-(4-aminopiperidin-1-yl)-1-(4-butoxyphenyl)-1,1-difluoro-3-oxopropan-2-yl)-4-(cyclohexylmethoxy)benzenesulfonamide trifluoroacetate]",30 to 100 µM
6,"NC1CC2CCC(C1)N2C(=O)[C@H](NS(=O)(=O)c1ccc2cc(OC3CCCC3)ccc2c1)C(F)(F)c1ccc2cc(Br)ccc2c1 (stereo partly drawn) [Compound 38-2, N-((2S)-3-(3-amino-8-azabicyclo[3.2.1]octan-8-yl)-1-(6-bromonaphthalen-2-yl)-1,1-difluoro-3-oxopropan-2-yl)-6-(cyclopentyloxy)naphthalene-2-sulfonamide trifluoroacetate]",1 to 10 µM
7,"NC1CCN(C(=O)[C@H](NS(=O)(=O)c2ccc3cc(OC4CCCC4)ccc3c2)C(F)(F)c2ccc(OC3CCCCC3)cc2)CC1 [Compound 97-2, (S)—N-(3-(4-aminopiperidin-1-yl)-1-(4-(cyclohexyloxy)phenyl)-1,1-difluoro-3-oxopropan-2-yl)-6-(cyclopentyloxy)naphthalene-2-sulfonamide]",1 to 10 µM
8,"CCCCOc1ccc(C(F)(F)[C@@H](NS(=O)(=O)c2ccc3cc(OC4CCCC4)ccc3c2)C(=O)N2C3CCC2CC(N)C3)cc1 (stereo partly drawn) [Compound 82-2, N-((2S)-3-(3-amino-8-azabicyclo[3.2.1]octan-8-yl)-1-(4-butoxyphenyl)-1,1-difluoro-3-oxopropan-2-yl)-6-(cyclopentyloxy)naphthalene-2-sulfonamide trifluoroacetate]",1 to 10 µM
9,"COc1ccc(C(F)(F)[C@@H](NS(=O)(=O)c2ccc3cc(OC4CCCC4)ccc3c2)C(=O)N2C3CCC2CC(N)C3)cc1 (stereo partly drawn) [Compound 45-2, N-((2S)-3-(3-amino-8-azabicyclo[3.2.1]octan-8-yl)-1,1-difluoro-1-(4-methoxyphenyl)-3-oxopropan-2-yl)-6-(cyclopentyloxy)naphthalene-2-sulfonamide]",1 to 10 µM
10,"NC1CC2CCC(C1)N2C(=O)[C@H](NS(=O)(=O)c1ccc(OCC2CCCCC2)cc1)C(F)(F)c1ccc(OC2CCCCC2)cc1 (stereo partly drawn) [Compound 105-2, N-((2S)-3-(3-amino-8-azabicyclo[3.2.1]octan-8-yl)-1-(4-(cyclohexyloxy)phenyl)-1,1-difluoro-3-oxopropan-2-yl)-4-(cyclohexylmethoxy)benzenesulfonamide]",10 to 30 µM
